The results in this text go back to patent US5364944A, “Substituted benzoylbenzene-, biphenyl- and 2-oxazole- alkanoic acid compounds” (American Home Products Corporation, priority 1993, dated 1994).

One assay relates to LTB4. Briefly: Reverse passive Arthus pleurisy assay, inflammatory mediator release: LTB4. In kind it is in vivo, rat (male Lewis). Particulars: for % Inhibition of LTB4 Synthesis: 3 hours before challenge. As for the experimental part:
The compounds of the invention are further tested in the reverse passive Arthus pleurisy assay to evaluate their effectiveness in inflammatory mediator release and/or the fluid and cellular phases of an inflammatory response.
(§1) This assay is carried out as follows:
A reverse passive Arthus reaction is induced in the pleural cavity of male Lewis rats (150-200 g; fasted overnight prior to use) by the intravenous administration of bovine serum albumin (BSA; 4 mg/0.2 ml) followed 30 minutes later by the injection of rabbit anti-BSA (1 mg/0.2 ml; lyophilized IgG fraction; Organon Teknika, West Chester, Pa.) into the right pleural space under halothane anesthesia. […] Animals are sacrificed at either the time of peak eicosanoid production (i.e. 5 minutes after anti-BSA for immunoreactive TxB2 10 minutes for immunoreactive LTB4, 20 minutes for immunoreactive LTC4) or at the time of peak neutrophil infiltration (4 hours after anti-BSA) by CO2 inhalation. The pleural cavity is then exposed, the fluid exudate removed by gentle vacuum aspiration and the volume of exudate is recorded. For the determination of cellular infiltration, the pleural cavity is rinsed with 3 ml of 0.1% EDTA in sterile saline, and the recovered wash is pooled with the exudate. Cell number is determined on a model ZBI Coulter counter. For determination of eicosanoid production, undiluted pleural exudate is microfuged and the supernatant is extracted with ethanol (8-10 times volume). Extracts are either stored at -20° C., or are evaporated to dryness under a stream of N2 and reconstituted in radioimmunoassay (RIA) buffer.
Eicosanoids are quantitated by RIA according to the procedure specified by the RIA kit manufacturer (Advanced Magnetics, Cambridge, Mass.). Briefly, 100 μl of ^3 H-labeled eicosanoid and 100 μl of specific antibody are sequentially added to 100 μl of extracted pleural exudate in BGG -phosphate buffer which contains 0.01 M phosphate, 0.1% bovine gamma globulin and 0.1% sodium azide at pH 7.0. Antibody-bound eicosanoid is separated from unbound eicosanoid by the addition of 750 μl of dextran (0.4%)-coated charcoal (0.4% Norit A) containing 0.1% sodium azide. The mixture is centrifuged at 2000 RPM at 5° C. for 15 minutes to pellet the charcoal and adsorbed unbound eicosanoid. Antibody-bound labeled eicosanoid is quantitated by counting in a liquid scintillation counter, and is correlated to concentration by a standard curve.
Inflammatory cells are expressed as 10^6 cells/ml, pleural exudate is expressed as ml of fluid, and the amount of eicosanoids in the pleural cavity is expressed as ng/ml of exudate. Mean ±S.E.M. is determined for each group. Percent inhibition (% I) of cell number, exudate volume and eicosanoid production is calculated for vehicle-treated control groups, and the responses in drug-treated rats are then expressed as the mean % I of the control. […] Exp. Ther., 96, 99-113 (1949).

Assay [1] concerns 5-lipoxygenase in human whole blood. Briefly: Inhibition of 5-lipoxygenase in human whole blood (LTB4). In kind it is cell-based. As for the experimental part: The assay of this Example measures the ability of the compounds tested to inhibit 5-lipoxygenase in human whole blood.
as §1
Blood is obtained in 50-100 ml quantities from male donors. White blood cell counts and differentials are made. Two ml of blood are placed in a 15 ml polypropylene test tube. Compounds are solubilized in dimethylsulfoxide and diluted 1:10 in 10% bovine serum albumin in phosphate buffered saline, pH 7.4 resulting in a final dimethylsulfoxide concentration of 0.1% in the blood. Then, compounds are added to the blood in a shaking water bath at 37° C. for 10 minutes prior to the addition of 30 μM calcium ionophore (A23187; Sigma). After ionophore administration, whole blood samples are mixed and incubated for 20 minutes at […] in a shaking water bath. Incubation is terminated by placing samples in an ice bath and immediately adding ethylene glycol-bis-(β-aminoethyl ether)-N,N,N',N'-tetraacetic acid (10 mM). Samples are mixed and centrifuged at 1200×g for 15 minutes at 4° C. Preparation of samples for evaluation by RIA or ELISA is carried out by the following protocol. Plasma is removed from sample tubes, placed in 15 ml polypropylene test tubes containing 8 ml methanol, and then vortexed to precipitate protein. Samples are stored at -70° C. overnight. The next day, samples are centrifuged at 200×g for 15 minutes at 4° C. to pellet the precipitate. Samples are dried in a Savant speed vac concentrator, reconstituted to original volume with ice cold RIA or ELISA buffer, and stored at -70° C. until assayed. The assay for eicosanoids (LTB4, TxB2, and PGE2) is performed as described by the manufacturer of the [^3 H]-RIA kit or ELISA kit (LTB4 -Amersham, TxB2 and PGE2 - Caymen Chemical).
The total eicosanoid level in 2 ml of blood is calculated and reported as ng/10^6 neutrophils. […] Drug effects are expressed as percent change from control values.
Compounds tested in vitro are solubilized in dimethylsulfoxide and diluted 1:10 in 10% bovine serum albumin in phosphate buffer saline resulting in a final dimethylsulfoxide concentration of 0.1% in the blood.

Assay [2] addresses T1, LTD4-induced contractions of isolated guinea pig trachea (Cavia porcellus, UniProt Q2NNR5).
T1 construct: isolated guinea pig trachea; from tissue; host or cells: tracheal rings of male Hartley guinea pigs
T1 sequence (Q2NNR5 1-340): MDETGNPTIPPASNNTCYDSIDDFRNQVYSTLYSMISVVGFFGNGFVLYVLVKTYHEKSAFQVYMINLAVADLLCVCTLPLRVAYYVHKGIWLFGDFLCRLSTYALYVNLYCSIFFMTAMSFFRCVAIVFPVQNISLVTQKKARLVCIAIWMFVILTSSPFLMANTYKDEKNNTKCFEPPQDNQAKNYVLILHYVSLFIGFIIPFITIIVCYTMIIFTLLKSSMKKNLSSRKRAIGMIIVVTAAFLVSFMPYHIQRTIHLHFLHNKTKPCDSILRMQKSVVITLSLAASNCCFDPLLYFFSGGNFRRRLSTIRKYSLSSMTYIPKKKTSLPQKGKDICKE
Briefly: In vitro isolated guinea pig trachea assay, LTD4 antagonist activity. Further details: species or system guinea pig (male Hartley). The following applies: 1 × 10^-5 M. As for the experimental part:
The LTD4 antagonist activity of the compounds of the invention is assessed in the in vitro isolated guinea pig trachea assay. This assay is carried out as follows: Male Hartley guinea pigs (350-400 g) are euthanized by a blow to the head, the neck is opened and the trachea removed. The trachea is maintained in aerated physiological salt solution, cleared of connective tissue and fat and cut into rings approximately 2 mm in width (usually containing two cartilaginous segments per ring). Two pieces of silk suture are then passed through the lumen of the tracheal ting and are tied around the cartilage, one on each side of the trachealis muscle. The tracheal ring is suspended between a glass hook and a force displacement transducer in a 10 ml organ bath for measurement of isometric tension. […] The tracheal rings are maintained at 2 g resting tension and equilibrated for 45 minutes (with frequent washing and readjustment of resting tension). The tracheal […] contracted by the addition of carbachol (3×10^-6 M), to determine tissue responsiveness and establish a reference contraction. On attainment of a stable level of contraction (approximately 30 minutes), the tissues are washed several times until baseline tension has been restored and the re-equilibrated for 30 minutes. The tissues are then incubated for 45 minutes with a test antiagonist (either 1×10^-6 M or 1×10^-5 M) or 10 μl of an appropriate solvent control (control, nontreated). One tissue in each group serves as the control. Twenty minutes prior to the construction of the LTD4 cumulative concentration-response curve, L-[…]×10^-2 M final bath concentration) is added to inhibit bioconversion of LTD4 to LTE4. Only one LTD4 concentration-response curve is constructed in each tissue. All responses to LTD4 in an individual tissue are measured as a percentage of the reference contraction of that tissue to carbachol. LTD4 antagonist activity is determined by comparison of the concentration response curves of LTD4 in the presence and absence of antagonist. Assessment of the relative rightward shift of the antagonist treated curve relative to the solvent (control) treated tissue is calculated as a concentration ratio (Eq. A) and used in subsequent calculations to derive an antagonist pKB value (Eqs. B and C). […] If a compound is found to be active and/or depress the maximal response to LTD4, then a range of concentrations of the test compound should be used generating multiple concentration ratios which would then be used to perform a Schild analysis, and determination of a pA2 value where appropriate.

Structures can show the parent of a compound that is named as a salt. Where two headings read alike, the source gives them in different places. Where only a bound is given, the exact number is not on record here.

A word on the IC50: it is the point on the concentration scale where inhibition reaches its midpoint. The Kb is the equilibrium dissociation constant of an antagonist, usually derived from a functional assay. Broadly, the pKB is the KB on a negative log10 scale, so that one unit is a factor of ten. A low value points to a high KB.

For `CN(O)C(=O)Cc1cccc(C(=O)c2ccc(OCc3nc4ccccc4s3)cc2)c1` [Example 30, 2-{3-[4-(Benzothiazol-2-ylmethoxy)-benzoyl]-phenyl}-N-hydroxy-N-methyl-4-acetamide 0,6 ethyl acetate solvate], the “% Inhibition of LTB4 Synthesis” value in the assay on LTB4 (25 mg/kg p.o.) is given as 21%. In assay [1], this compound came in with an IC50 of 0.98 µM. Besides, the “% Inhibition of LTB4” value in assay [1] (at 10 μM) is 96%.

For `CC(C)N(O)C(=O)Cc1ccc(-c2ccc(OCc3nc4ccccc4s3)cc2)cc1` [Example 15, N-Hydroxy-N-isopropyl-4'-(2-benzothiazolymethoxy)[1,1'-biphenyl]-4-acetamide], the “% Inhibition of LTB4 Synthesis” value in the assay on LTB4 (10 mg/kg p.o.) stood at 12%. Further, the “% Inhibition of LTB4” value in assay [1] (at 25 μM) is recorded as 77%. In addition, the Kb in assay [2] is more than 10 µM.

For the compound `CC(C(=O)N(C)O)c1ccc(-c2ccc(OCc3nc4ccccc4s3)cc2)cc1` (centres unmarked) [Example 17, N-Hydroxy-N.,a,-dimethyl-4'-(2-benzothiazolylmethoxy)[1,1'-biphenyl]-4-acetamide, sodium salt, methanol solvate], the “% Inhibition of LTB4 Synthesis” value in the assay on LTB4 (25 mg/kg p.o.) amounted to 37%. In assay [2], this compound gave a Kb of more than 3.16 µM.

On to `CC(c1ccc(-c2ccc(OCc3nc4ccccc4s3)cc2)cc1)N(O)C(N)=O` (centres unmarked) [Example 33, 1-{1-[4'-(Benzothiazol-2-ylmethoxy)biphenyl-4-yl]-ethyl}-1-hydroxy-urea], for which, in the assay on LTB4 (25 mg/kg p.o.), the “% Inhibition of LTB4 Synthesis” value is on record as 2%. Further, the “% Inhibition of LTB4” value in assay [1] (at 10 μM) is on record as 10%. This compound showed a Kb in assay [2] of more than 10 µM.

As to `CN(O)C(=O)Cc1ccc(-c2ccc(OCc3csc(-c4ccccc4)n3)cc2)cc1` [Example 18], the “% Inhibition of LTB4 Synthesis” value in the assay with LTB4 (25 mg/kg p.o.) stood at 32%. This compound also yielded a half-inhibitory concentration (IC50) in assay [1] of 0.5 µM. In addition, in assay [1] (at 25 μM), the “% Inhibition of LTB4” value worked out at 97%. Further, the Kb in assay [2] was more than 7.94 µM.

As to `CN(O)C(=O)Cc1ccc(-c2ccc(OCc3nc4ccccc4s3)cc2)c(F)c1` [Example 26], the “% Inhibition of LTB4 Synthesis” value with LTB4 (25 mg/kg p.o.) is recorded as 7%. The compound also returned an IC50 in assay [1] of 1.3 µM. The “% Inhibition of LTB4” value in assay [1] (at 25 μM) is 86%. This compound gave a Kb in assay [2] of more than 10 µM.

As for `CC(C(=O)N(C)O)c1ccc(-c2ccc(OCc3nc4ccccc4n3C)cc2)cc1` (stereo not drawn) [Example 24, N-Hlydroxy-N,α-dimethyl-4'-[(1-methyl-1H-benzimidazol-2-yl)methoxy]-[1,1'-biphenyl]-4-acetamide, hydrochloride salt], the “% Inhibition of LTB4 Synthesis” value in the assay on LTB4 (25 mg/kg p.o.) is recorded as 56%. In assay [2], this compound had an antagonist dissociation constant (Kb) of 1 µM.

With `CC(C(=O)N(C)O)c1ccc(-c2ccc(OCc3nc4ccccc4s3)cc2)cc1` (stereo not drawn) [Example 16, N-Hydroxy-N,α-dimethyl-4'-(2-benzothiazolylmethoxy)[1,1'-biphenyl]-4-acetamide], the “% Inhibition of LTB4 Synthesis” value with LTB4 (25 mg/kg p.o.) is on record as 46%. In addition, in assay [1], the IC50 stood at 8.3 µM. Moreover, in assay [1] (at 25 μM), the “% Inhibition of LTB4” value is on record as 72%.

In the case of `CC(C)N(O)C(=O)Cc1ccc(-c2ccc(OCc3csc(-c4ccccc4)n3)cc2)cc1` [Example 20, N-Hydroxy-N-isopropyl-4'-[(2-phenylthiazol-4yl)methoxy][1,1'-biphenyl]-4-acetamide], in the assay on LTB4 (25 mg/kg p.o.), the “% Inhibition of LTB4 Synthesis” value worked out at 19%. Further, in assay [1] (at 25 μM), the “% Inhibition of LTB4” value is 93%. The compound also gave a pKB in assay [2] of less than 5.2.

Turning to `CC(C(=O)N(C)O)c1ccc(-c2ccc(OCc3csc(-c4ccccc4)n3)cc2)cc1` (stereo not drawn) [Example 22, N-Hydroxy-N,α-dimethyl-4'-[(2-phenylthiazol-4-yl)methoxy][1,1'-biphenyl]-4-acetamide,sodium salt, hydrate], the “% Inhibition of LTB4 Synthesis” value with LTB4 (25 mg/kg p.o., sodium salt, hydrate) was found to be 37%. Further, the “% Inhibition of LTB4” value in assay [1] (at 25 μM, sodium salt, hydrate) worked out at 74%. For the same compound, in assay [1] (sodium salt, hydrate), the IC50 worked out at 9 µM. This compound showed an antagonist dissociation constant (Kb) in assay [2] of 5.01 µM.

Consider `O=C(O)Cc1ccc(-c2ccc(OCc3ccc4ccccc4n3)cc2)c(F)c1` [Example 2, 2-Fluoro-4'-(2-quinolinylmethoxy)-[1,1'-biphenyl]-4-acetic acid], for which, in the assay with LTB4 (25 mg/kg p.o.), the “% Inhibition of LTB4 Synthesis” value is given as 34%. For the same compound, the “% Inhibition of LTB4” value in assay [1] (at 25 μM) amounted to 5%. For the same compound, the antagonist dissociation constant (Kb) in assay [2] was 0.631 µM.

On to `O=C(O)Cc1ccccc1Nc1c(Cl)cccc1Cl` [Diclofenac, reference compound], for which, in the assay on LTB4 (10 mg/kg p.o., standard drugs), the “% Inh LTB4” value is 0%.
